Molecules are shown by their SMILES. Where two headings read alike, the source gives them in different places. Some results are limits rather than exact numbers.

The test addresses T1, Human BCL-XL protein (N-terminal HiBiT tagged BCL-XL in HT1080 cells) (Homo sapiens, UniProt Q07817).
T1 construct: expressed in transfected cells; host or cells: HT-1080 (ATCC CCL-121), stably transduced with lentivirus pLV-UBC-N-HiBiT-BCL-XL-PGK-puro and selected with puromycin
The experiment in a line: HiBiT based degradation assay. It counts as cell-based. The following applies: HT1080 cells expressing HiBiT-BCL-XL; for Ymin (6 h) / Ymin (24 h): BCL-XL degradation normalized with DMSO control; for DC50: BCL-XL degradation. A digest of the protocol:
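This HiBiT degradation assay measured loss of BCL-XL in HT1080 cells that stably express an N-terminal HiBiT-BCL-XL fusion delivered by lentivirus. Cells were added to compound-spotted 384-well plates, and luminescence was read on a PHERAstar FSX reader. Signal was expressed relative to DMSO controls, curves were fitted by four-parameter logistic regression, and for hook-shaped curves the Ymin point served as the bottom plateau when calculating EC50.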

T1 sequence (Q07817 whole entry): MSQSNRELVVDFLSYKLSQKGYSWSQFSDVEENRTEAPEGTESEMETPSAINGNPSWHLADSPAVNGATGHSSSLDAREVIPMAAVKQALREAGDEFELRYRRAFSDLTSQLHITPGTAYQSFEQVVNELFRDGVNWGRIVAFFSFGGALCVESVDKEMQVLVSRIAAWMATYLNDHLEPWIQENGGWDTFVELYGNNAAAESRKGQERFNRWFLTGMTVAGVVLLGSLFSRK

As to `Cc1c(Oc2ccccc2CCC(=O)Nc2ccc(C3CCC(=O)NC3=O)cc2)cccc1-c1ccc(N2CCc3cccc(C(=O)Nc4nc5ccccc5s4)c3C2)nc1C(=O)O` (stereo not drawn) [Compound 134, 6-(8-(benzo[d]thiazol-2-ylcarbamoyl)-3,4-dihydroisoquinolin-2(1H)-yl)-3-(3-(2-(3-((4-(2,6-dioxopiperidin-3-yl)phenyl)amino)-3-oxopropyl)phenoxy)-2-methylphenyl)picolinic acid], the “Ymin (6 h)” value (6 h) is “B (50% ≤ Ymin < 70%)”. The “Ymin (24 h)” value (24 h) is given as “B (50% ≤ Ymin < 70%)”. Besides, the DC50 (6 h, read-out: EC50 (6 h)) fell in the range of 100 to 1000 nM and the DC50 (24 h, read-out: EC50 (24 h)) was less than 100 nM.
For `Cc1c(-c2ccc(N3CCc4cccc(C(=O)Nc5nc6ccccc6s5)c4C3)nc2C(=O)NCC(=O)Nc2ccc3c(C4CCC(=O)NC4=O)nn(C)c3c2)cnn1Cc1ccccc1` (stereo not drawn) [Compound 135, N-(1,3-benzothiazol-2-yl)-2-[5-(1-benzyl-5-methyl-pyrazol-4-yl)-6-[[2-[[3-(2,6-dioxo-3-piperidyl)-1-methyl-indazol-6-yl]amino]-2-oxo-ethyl]carbamoyl]-2-pyridyl]-3,4-dihydro-1H-isoquinoline-8-carboxamide], the “Ymin (6 h)” value (6 h) is given as “B (50% ≤ Ymin < 70%)”. Where the note is “6 h, read-out: EC50 (6 h)”, the DC50 is less than 100 nM.
Turning to `Cc1c(OCCCN2CCN(CCOc3ccc4c(C5CCC(=O)NC5=O)nn(C)c4c3)CC2)cccc1-c1ccc(N2CCc3cccc(C(=O)Nc4nc5ccccc5s4)c3C2)nc1C(=O)O` (stereo not drawn) [Compound 136, 6-(8-(benzo[d]thiazol-2-ylcarbamoyl)-3,4-dihydroisoquinolin-2(1H)-yl)-3-(3-(3-(4-(2-((3-(2,6-dioxopiperidin-3-yl)-1-methyl-1H-indazol-6-yl)oxy)ethyl)piperazin-1-yl)propoxy)-2-methylphenyl)picolinic acid], the “Ymin (6 h)” value (6 h) is recorded as “B (50% ≤ Ymin < 70%)”. For the setting “24 h”, the “Ymin (24 h)” value was “B (50% ≤ Ymin < 70%)”. Besides, the DC50 runs as follows: (6 h, read-out: EC50 (6 h)) 100 to 1000 nM; (24 h, read-out: EC50 (24 h)) less than 100 nM.
In the case of `Cc1c(OCCCCCCCN2CCN(c3ccc4c(C5CCC(=O)NC5=O)nn(C)c4c3)CC2)cccc1-c1ccc(N2CCc3cccc(C(=O)Nc4nc5ccccc5s4)c3C2)nc1C(=O)O` (stereo not drawn) [Compound 137, 6-(8-(benzo[d]thiazol-2-ylcarbamoyl)-3,4-dihydroisoquinolin-2(1H)-yl)-3-(3-((7-(4-(3-(2,6-dioxopiperidin-3-yl)-1-methyl-1H-indazol-6-yl)piperazin-1-yl)heptyl)oxy)-2-methylphenyl)picolinic acid], the “Ymin (6 h)” value (6 h) is listed as “B (50% ≤ Ymin < 70%)”. In addition, the “Ymin (24 h)” value (24 h) was “A (Ymin < 50%)”. The DC50 was less than 100 nM (6 h, read-out: EC50 (6 h)) and less than 100 nM (24 h, read-out: EC50 (24 h)).
Consider `Cc1c(O[C@H]2CC[C@H](CCC(=O)N3CCN(c4ccc5c(C6CCC(=O)NC6=O)nn(C)c5c4)CC3)CC2)cccc1-c1ccc(N2CCc3cccc(C(=O)Nc4nc5ccccc5s4)c3C2)nc1C(=O)O` (stereo partly drawn) [Compound 138a, 6-(8-(benzo[d]thiazol-2-ylcarbamoyl)-3,4-dihydroisoquinolin-2(1H)-yl)-3-(3-(((1r,4r)-4-(3-(4-(3-(2,6-dioxopiperidin-3-yl)-1-methyl-1H-indazol-6-yl)piperazin-1-yl)-3-oxopropyl)cyclohexyl)oxy)-2-methylphenyl)picolinic acid], for which the “Ymin (6 h)” value (6 h) is “B (50% ≤ Ymin < 70%)”. Moreover, where the note is “24 h”, the “Ymin (24 h)” value is listed as “B (50% ≤ Ymin < 70%)”. Besides, the DC50 was 1000 to 10000 nM (6 h, read-out: EC50 (6 h)) and less than 100 nM (24 h, read-out: EC50 (24 h)).
With `Cc1c(O[C@H]2CC[C@@H](CCC(=O)N3CCN(c4ccc5c(C6CCC(=O)NC6=O)nn(C)c5c4)CC3)CC2)cccc1-c1ccc(N2CCc3cccc(C(=O)Nc4nc5ccccc5s4)c3C2)nc1C(=O)O` (stereo partly drawn) [Compound 138b, 6-(8-(benzo[d]thiazol-2-ylcarbamoyl)-3,4-dihydroisoquinolin-2(1H)-yl)-3-(3-(((1s,4s)-4-(3-(4-(3-(2,6-dioxopiperidin-3-yl)-1-methyl-1H-indazol-6-yl)piperazin-1-yl)-3-oxopropyl)cyclohexyl)oxy)-2-methylphenyl)picolinic acid], for the setting “24 h”, the “Ymin (24 h)” value is “B (50% ≤ Ymin < 70%)”. Also, the DC50 (24 h, read-out: EC50 (24 h)) is less than 100 nM.
Turning to `Cc1cc(Oc2ccc(CCC(=O)Nc3ccc4c(C5CCC(=O)NC5=O)nn(C)c4c3)cc2)ccc1-c1ccc(N2CCc3cccc(C(=O)Nc4nc5ccccc5s4)c3C2)nc1C(=O)O` (stereo not drawn) [Compound 139, 6-(8-(benzo[d]thiazol-2-ylcarbamoyl)-3,4-dihydroisoquinolin-2(1H)-yl)-3-(4-(4-(3-((3-(2,6-dioxopiperidin-3-yl)-1-methyl-1H-indazol-6-yl)amino)-3-oxopropyl)phenoxy)-2-methylphenyl)picolinic acid], the “Ymin (6 h)” value (6 h) is on record as “B (50% ≤ Ymin < 70%)”. Where the note is “24 h”, the “Ymin (24 h)” value is listed as “B (50% ≤ Ymin < 70%)”. Moreover, the DC50 lay in the range of 100 to 1000 nM (6 h, read-out: EC50 (6 h)) and 100 to 1000 nM (24 h, read-out: EC50 (24 h)).
Turning to `Cc1c(OCCCN2CCN(CC(=O)N3CCN(c4ccc5c(C6CCC(=O)NC6=O)nn(C)c5c4)CC3)CC2)cccc1-c1ccc(N2CCc3cccc(C(=O)Nc4nc5ccccc5s4)c3C2)nc1C(=O)O` (stereo not drawn) [Compound 140, 6-(8-(Benzo[d]thiazol-2-ylcarbamoyl)-3,4-dihydroisoquinolin-2(1H)-yl)-3-(3-(3-(4-(2-(4-(3-(2,6-dioxopiperidin-3-yl)-1-methyl-1H-indazol-6-yl)piperazin-1-yl)-2-oxoethyl)piperazin-1-yl)propoxy)-2-methylphenyl)picolinic acid], for the setting “6 h”, the “Ymin (6 h)” value is recorded as “A (Ymin < 50%)”. Also, the “Ymin (24 h)” value (24 h) is reported as “A (Ymin < 50%)”. For the same compound, the DC50 was less than 100 nM (6 h, read-out: EC50 (6 h)) and less than 100 nM (24 h, read-out: EC50 (24 h)).
As for `Cc1c(OCCN2CCN(CC(=O)N3CCN(c4ccc5c(C6CCC(=O)NC6=O)nn(C)c5c4)CC3)CC2)cccc1-c1ccc(N2CCc3cccc(C(=O)Nc4nc5ccccc5s4)c3C2)nc1C(=O)O` (stereo not drawn) [Compound 141, 6-(8-(benzo[d]thiazol-2-ylcarbamoyl)-3,4-dihydroisoquinolin-2(1H)-yl)-3-(3-(2-(4-(2-(4-(3-(2,6-dioxopiperidin-3-yl)-1-methyl-1H-indazol-6-yl)piperazin-1-yl)-2-oxoethyl)piperazin-1-yl)ethoxy)-2-methylphenyl)picolinic acid], the “Ymin (6 h)” value (6 h) is “B (50% ≤ Ymin < 70%)”. For the same compound, for the setting “24 h”, the “Ymin (24 h)” value was “A (Ymin < 50%)”. The DC50 (6 h, read-out: EC50 (6 h)) was less than 100 nM and the DC50 (24 h, read-out: EC50 (24 h)) was less than 100 nM.
On to `Cc1c(OCCCC2CCN(CC(=O)N3CCN(c4ccc5c(C6CCC(=O)NC6=O)nn(C)c5c4)CC3)CC2)cccc1-c1ccc(N2CCc3cccc(C(=O)Nc4nc5ccccc5s4)c3C2)nc1C(=O)O` (stereo not drawn) [Compound 142, 6-(8-(benzo[d]thiazol-2-ylcarbamoyl)-3,4-dihydroisoquinolin-2(1H)-yl)-3-(3-(3-(1-(2-(4-(3-(2,6-dioxopiperidin-3-yl)-1-methyl-1H-indazol-6-yl)piperazin-1-yl)-2-oxoethyl)piperidin-4-yl)propoxy)-2-methylphenyl)picolinic acid], for which, where the note is “6 h”, the “Ymin (6 h)” value is given as “A (Ymin < 50%)”. Further, the “Ymin (24 h)” value (24 h) was “A (Ymin < 50%)”. For the same compound, the DC50 by setting is: (6 h, read-out: EC50 (6 h)) less than 100 nM; (24 h, read-out: EC50 (24 h)) less than 100 nM.
With `Cc1c(OCCC2CCN(CC(=O)N3CCN(c4ccc5c(C6CCC(=O)NC6=O)nn(C)c5c4)CC3)CC2)cccc1-c1ccc(N2CCc3cccc(C(=O)Nc4nc5ccccc5s4)c3C2)nc1C(=O)O` (stereo not drawn) [Compound 143, 6-(8-(benzo[d]thiazol-2-ylcarbamoyl)-3,4-dihydroisoquinolin-2(1H)-yl)-3-(3-(2-(1-(2-(4-(3-(2,6-dioxopiperidin-3-yl)-1-methyl-1H-indazol-6-yl)piperazin-1-yl)-2-oxoethyl)piperidin-4-yl)ethoxy)-2-methylphenyl)picolinic acid], under “6 h”, the “Ymin (6 h)” value was “A (Ymin < 50%)”. For the same compound, the “Ymin (24 h)” value (24 h) is given as “A (Ymin < 50%)”. Also, the DC50 is, setting by setting: (6 h, read-out: EC50 (6 h)) less than 100 nM; (24 h, read-out: EC50 (24 h)) less than 100 nM.
Take `Cc1c(OCCCC2CCN(CC(=O)N3CCN(c4cccc5c(C6CCC(=O)NC6=O)nn(C)c45)CC3)CC2)cccc1-c1ccc(N2CCc3cccc(C(=O)Nc4nc5ccccc5s4)c3C2)nc1C(=O)O` (stereo not drawn) [Compound 144, 6-[8-(1,3-benzothiazol-2-ylcarbamoyl)-3,4-dihydro-1H-isoquinolin-2-yl]-3-[3-[3-[1-[2-[4-[3-(2,6-dioxo-3-piperidyl)-1-methyl-indazol-7-yl]piperazin-1-yl]-2-oxo-ethyl]-4-piperidyl]propoxy]-2-methyl-phenyl]pyridine-2-carboxylic acid]: the “Ymin (6 h)” value (6 h) is “A (Ymin < 50%)”. In addition, the “Ymin (24 h)” value (24 h) is reported as “A (Ymin < 50%)”. The DC50 is, setting by setting: (6 h, read-out: EC50 (6 h)) less than 100 nM; (24 h, read-out: EC50 (24 h)) less than 100 nM.
On to `Cc1c(OCCC2CCN(CC(=O)N3CCN(c4cccc5c(C6CCC(=O)NC6=O)nn(C)c45)CC3)CC2)cccc1-c1ccc(N2CCc3cccc(C(=O)Nc4nc5ccccc5s4)c3C2)nc1C(=O)O` (stereo not drawn) [Compound 145, 6-(8-(benzo[d]thiazol-2-ylcarbamoyl)-3,4-dihydroisoquinolin-2(1H)-yl)-3-(3-(2-(1-(2-(4-(3-(2,6-dioxopiperidin-3-yl)-1-methyl-1H-indazol-7-yl)piperazin-1-yl)-2-oxoethyl)piperidin-4-yl)ethoxy)-2-methylphenyl)picolinic acid], for which the “Ymin (6 h)” value (6 h) was “B (50% ≤ Ymin < 70%)”. Further, for the setting “24 h”, the “Ymin (24 h)” value is recorded as “A (Ymin < 50%)”. The DC50 (6 h, read-out: EC50 (6 h)) was less than 100 nM and the DC50 (24 h, read-out: EC50 (24 h)) is less than 100 nM.

These data come from patent US20240238423A9, “TETRAHYDROISOQUINOLINE HETEROBIFUNCTIONAL BCL-XL DEGRADERS” (Treeline Biosciences, Inc., priority 2022, published 2024).
